Target: T1, recombinant human TrkA (Homo sapiens, UniProt P04629)
T1 construct: 6HIS tagged cytoplasmic domain from Invitrogen, Catalog No. PV3144; purchased Invitrogen PV3144
Test: TrkA LanthaScreen Eu Kinase Binding Assay
Conditions: averaged IC50; TR-FRET binding assay, 60 min at 22° C.; read-out: TrkA Enzyme IC50
Description: TrkA binding activity was determined in a TrkA LanthaScreen™ Eu Kinase Binding Assay. 5 nM His-tagged recombinant human TrkA (6HIS tagged cytoplasmic domain from Invitrogen, Catalog No. PV3144) was incubated with 4 nM Alexa-Fluor® Tracer 236 (Invitrogen Cat. No. PV5592), 2 nM biotinylated anti-His (Invitrogen Cat. No. PV6090), and 2 nM europium-labeled Streptavidin (Invitrogen Cat. No. PV5899), in buffer (25 mM MOPS, pH 7.5, 5 mM MgCl2, 0.005% Triton X-100). Three fold serial dilutions of compounds of the invention in DMSO were added to a final percentage of 2% DMSO. After 60-minute incubation at 22° C., the reaction was measured using the EnVision multimode plate reader (PerkinElmer) via TR-FRET dual wavelength detection at […]. The percent of control was calculated using a ratiometric emission factor. The IC50 values were determined by fitting a four parameter model to the percent of control data.
Table A provides averaged IC50 values for compounds of the invention when tested in the assay of Example A, where A represents an averaged IC50 value <100 nM; and B represents an averaged IC50 value from 100 to 1,000 nM.

T1 sequence (P04629 440-796 limits assumed): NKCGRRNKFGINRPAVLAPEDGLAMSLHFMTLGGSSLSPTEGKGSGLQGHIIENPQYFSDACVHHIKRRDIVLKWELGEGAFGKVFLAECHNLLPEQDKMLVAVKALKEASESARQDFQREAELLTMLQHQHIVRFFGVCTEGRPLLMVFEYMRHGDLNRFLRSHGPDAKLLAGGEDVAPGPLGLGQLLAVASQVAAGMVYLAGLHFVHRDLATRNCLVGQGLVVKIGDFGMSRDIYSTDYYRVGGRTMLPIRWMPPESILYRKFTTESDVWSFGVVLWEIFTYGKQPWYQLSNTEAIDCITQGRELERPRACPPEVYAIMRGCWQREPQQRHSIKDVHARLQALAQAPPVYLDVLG

| SMILES | IC50 |
| --- | --- |
| Cc1ccc(NC(=O)Nc2c(-c3ccccc3)nc3c(C)nccn23)c(-c2ccccc2)n1 [Example 9, 1-(8-methyl-2-phenylimidazo[1,2-a]pyrazin-3-yl)-3-(6-methyl-2-phenylpyridin-3-yl)urea] | 0.1 to 1 µM |
| CCOc1nn(-c2ccccc2)c(NC(=O)Nc2c(-c3ccccc3)nc3c(Cl)cccn23)c1C [Example 4, 1-(8-chloro-2-phenylimidazo[1,2-a]pyridin-3-yl)-3-(3-ethoxy-4-methyl-1-phenyl-1H-pyrazol-5-yl)urea] | < 0.1 µM |
| O=C(Nc1c2c(nn1-c1ccccc1)CS(=O)(=O)C2)Nc1c(-c2ccccc2)nc2c(C(F)(F)F)cccn12 [Example 18, 1-(5,5-dioxido-2-phenyl-4,6-dihydro-2H-thieno[3,4-c]pyrazol-3-yl)-3-(2-phenyl-8-(trifluoromethyl)imidazo[1,2-a]pyridin-3-yl)urea] | < 0.1 µM |
| Cc1cccn2c(NC(=O)Nc3c4c(nn3-c3ccccc3)COC4)c(-c3ccccc3)nc12 [Example 14, 1-(8-methyl-2-phenylimidazo[1,2-a]pyridin-3-yl)-3-(2-phenyl-4,6-dihydro-2H-furo[3,4-c]pyrazol-3-yl)urea] | < 0.1 µM |
| Cc1nccn2c(NC(=O)Nc3c4c(nn3-c3ccccc3)CCC4)c(-c3ccccc3)nc12 [Example 1, 1-(8-methyl-2-phenylimidazo[1,2-a]pyrazin-3-yl)-3-(2-phenyl-2,4,5,6-tetrahydrocyclopenta[c]pyrazol-3-yl)urea] | < 0.1 µM |
| Cc1c(OC[C@H](O)CO)nn(-c2ccccc2)c1NC(=O)Nc1c(-c2ccccc2)nc2c(C)cccn12 [Example 10, (R)-1-(3-(2,3-dihydroxypropoxy)-4-methyl-1-phenyl-1H-pyrazol-5-yl)-3-(8-methyl-2-phenylimidazo[1,2-a]pyridin-3-yl)urea] | 0.1 to 1 µM |
| CCOc1nn(-c2ccccc2)c(NC(=O)Nc2c(-c3ccccc3)nc3ccccn23)c1C [Example 5, 1-(3-ethoxy-4-methyl-1-phenyl-1H-pyrazol-5-yl)-3-(2-phenylimidazo[1,2-a]pyridin-3-yl)urea] | 0.1 to 1 µM |
| Cc1c(OC[C@H](C)O)nn(-c2ccccc2)c1NC(=O)Nc1c(-c2ccccc2)nc2c(C)cccn12 [Example 11, (S)-1-(3-(2-hydroxypropoxy)-4-methyl-1-phenyl-1H-pyrazol-5-yl)-3-(8-methyl-2-phenylimidazo[1,2-a]pyridin-3-yl)urea] | 0.1 to 1 µM |
| CCOc1nn(-c2ccccc2)c(NC(=O)Nc2c(-c3ccccc3)nc3c(C)nccn23)c1C [Example 2, 1-(3-ethoxy-4-methyl-1-phenyl-1H-pyrazol-5-yl)-3-(8-methyl-2-phenylimidazo[1,2-a]pyrazin-3-yl)urea] | < 0.1 µM |
| Cc1cccn2c(NC(=O)Nc3c4c(nn3-c3ccccc3)CCCC4)c(-c3ccccc3)nc12 [Example 19, 1-(8-methyl-2-phenylimidazo[1,2-a]pyridin-3-yl)-3-(2-phenyl-4,5,6,7-tetrahydro-2H-indazol-3-yl)urea] | < 0.1 µM |

Next, values leading:

| IC50 | SMILES |
| --- | --- |
| 0.1 to 1 µM | CCOc1nn(-c2ccccc2)c(NC(=O)Nc2c(-c3ccc(OC)cc3)nc3c(C)cccn23)c1C [Example 23, 1-(3-ethoxy-4-methyl-1-phenyl-1H-pyrazol-5-yl)-3-(2-(4-methoxyphenyl)-8-methylimidazo[1,2-a]pyridin-3-yl)urea] |
| < 0.1 µM | Cn1cc(-c2nn(-c3ccccc3)c(NC(=O)Nc3c(-c4ccccc4)nc4c(C(F)(F)F)cccn34)c2Cl)cn1 [Example 34, 1-(4-chloro-1′-methyl-1-phenyl-1H,1′H-[3,4′-bipyrazol]-5-yl)-3-(2-phenyl-8-(trifluoromethyl)imidazo[1,2-a]pyridin-3-yl)urea] |
| < 0.1 µM | COC[C@H](O)COc1nn(-c2ccccc2)c(NC(=O)Nc2c(-c3ccccc3)nc3c(C(F)(F)F)cccn23)c1C [Example 36, (S)-1-(3-(2-hydroxy-3-methoxypropoxy)-4-methyl-1-phenyl-1H-pyrazol-5-yl)-3-(2-phenyl-8-(trifluoromethyl)imidazo[1,2-a]pyridin-3-yl)urea] |
| < 0.1 µM | CCOc1nn(-c2ccccc2)c(NC(=O)Nc2c(-c3ccc(F)cc3)nc3c(C(F)(F)F)cccn23)c1C [Example 33, 1-(3-ethoxy-4-methyl-1-phenyl-1H-pyrazol-5-yl)-3-(2-(4-fluorophenyl)-8-(trifluoromethyl)imidazo[1,2-a]pyridin-3-yl)urea] |
| < 0.1 µM | COc1nn(-c2ccccc2)c(NC(=O)Nc2c(-c3ccccc3)nc3c(C)cccn23)c1C [Example 21, 1-(3-methoxy-4-methyl-1-phenyl-1H-pyrazol-5-yl)-3-(8-methyl-2-phenylimidazo[1,2-a]pyridin-3-yl)urea] |
| 0.1 to 1 µM | COc1ccc(-c2nc3c(C)cccn3c2NC(=O)Nc2c3c(nn2-c2ccccc2)CS(=O)(=O)C3)cc1 [Example 24, 1-(5,5-dioxido-2-phenyl-4,6-dihydro-2H-thieno[3,4-c]pyrazol-3-yl)-3-(2-(4-methoxyphenyl)-8-methylimidazo[1,2-a]pyridin-3-yl)urea] |
| 0.1 to 1 µM | CCOc1nn(-c2ccccc2)c(NC(=O)Nc2c(-c3ccccc3)nn3ccccc23)c1C [Example 39, 1-(3-ethoxy-4-methyl-1-phenyl-1H-pyrazol-5-yl)-3-(2-phenylpyrazolo[1,5-a]pyridin-3-yl)urea] |
| 0.1 to 1 µM | CCOc1nn(-c2ccccc2)c(NC(=O)Nc2c(-c3cccc(F)c3)nc3c(C(F)(F)F)cccn23)c1C [Example 32, 1-(3-ethoxy-4-methyl-1-phenyl-1H-pyrazol-5-yl)-3-(2-(3-fluorophenyl)-8-(trifluoromethyl)imidazo[1,2-a]pyridin-3-yl)urea] |
| 0.1 to 1 µM | COC[C@@H](O)COc1nn(-c2ccccc2)c(NC(=O)Nc2c(-c3ccccc3)nc3c(C(F)(F)F)cccn23)c1C [Example 35, (R)-1-(3-(2-hydroxy-3-methoxypropoxy)-4-methyl-1-phenyl-1H-pyrazol-5-yl)-3-(2-phenyl-8-(trifluoromethyl)imidazo[1,2-a]pyridin-3-yl)urea] |
| < 0.1 µM | Cc1c(OC[C@@H](O)CO)nn(-c2ccccc2)c1NC(=O)Nc1c(-c2ccccc2)nc2c(C(F)(F)F)cccn12 [Example 29, (S)-1-(3-(2,3-dihydroxypropoxy)-4-methyl-1-phenyl-1H-pyrazol-5-yl)-3-(2-phenyl-8-(trifluoromethyl)imidazo[1,2-a]pyridin-3-yl)urea] |
| < 0.1 µM | O=C(Nc1c2c(nn1-c1ccccc1)CCCC2)Nc1c(-c2ccccc2)nc2c(C(F)(F)F)cccn12 [Example 20, 1-(2-phenyl-4,5,6,7-tetrahydro-2H-indazol-3-yl)-3-(2-phenyl-8-(trifluoromethyl)imidazo[1,2-a]pyridin-3-yl)urea] |
| 0.1 to 1 µM | COCc1nn(-c2ccccc2)c(NC(=O)Nc2c(-c3ccccc3)nc3c(C(F)(F)F)cccn23)c1C [Example 31, 1-(3-(methoxymethyl)-4-methyl-1-phenyl-1H-pyrazol-5-yl)-3-(2-phenyl-8-(trifluoromethyl)imidazo[1,2-a]pyridin-3-yl)urea] |
| < 0.1 µM | Cc1c(OC[C@H](O)CO)nn(-c2ccccc2)c1NC(=O)Nc1c(-c2ccccc2)nc2c(C(F)(F)F)cccn12 [Example 28, (R)-1-(3-(2,3-dihydroxypropoxy)-4-methyl-1-phenyl-1H-pyrazol-5-yl)-3-(2-phenyl-8-(trifluoromethyl)imidazo[1,2-a]pyridin-3-yl)urea] |

From US9822118B2, “Bicyclic heteroaryl urea, thiourea, guanidine and cyanoguanidine compounds as TrkA kinase inhibitors” (Array BioPharma Inc., priority 2012, dated 2017)
